Tested on: Platelet
Experiment: Inhibition of arachidonic acid-induced platelets aggregation by turbidimetry
Type: functional, cell-based

IC50 [µM]	SMILES
7.14	C=C(C)C(O)Cc1cc(-c2cc(=O)c3c(O)cc(O)cc3o2)cc2c1OC(C)(C)C=C2 (configuration not stated) [YINYANGHUO A]
1.67	C=C(C)C(O)Cc1cc(-c2cc(=O)c3c(O)cc(O)cc3o2)cc(CC=C(C)C)c1O (configuration not stated) [YINYANGHUO B]

Source: ChEMBL document CHEMBL1158238, “New prenylflavones from the leaves of Epimedium saggitatum” (J Nat Prod, 1996)
